Reference: patent publication US10844018B2, “Pyridoxine derivative for treatment of epilepsy” (AO “TATKHIMFARMPREPARATY”, priority 2017, dated 2020)
“Also recorded” adds a separate entry of the source. Where two headings read alike, the source gives them in different places.

How the values were obtained:
mice [1] = conditions: cited from earlier work
mice [2] = conditions: intraperitoneal administration; cited from earlier work
[3] = test system: penicillin rat epilepsy model (high-amplitude electric discharges, HAED); assay: Penicillin model of epilepsy: effect on the electrical activity of the brain; type: in vivo
Protocol: Experiments were carried out on male Wistar rats with a body weight of 180-250 g. Under isoflurane anesthesia (1.5%), surgical preparation for the experiment is performed. Urethane ([…]) is used for anesthesia during the experiment. Next, the animal is fixed in a stereotactic installation. 2×2 mm holes are drilled in the skulls of animals over symmetrical areas of the sensorimotor cortex of the brain and a 16-channel silicon-based probe (Neuronexus) is installed with a step of 100 μm between the recording electrodes to divert electrical activity from these areas. A silver chloride electrode, which serves as a combined ground electrode and a reference electrode, is introduced into the cerebellum or the visual cortex to a depth of 2-3 mm. To create a focus of epileptic activity in parallel to the somatosensory zones, 2×2 mm holes are drilled in the area of the visual cortex, into which 10 μl of a solution of sodium salt of benzylpenicillin are applied at a concentration of 40,000 IU/ml. […] The amplitude-frequency characteristics of epileptiform activity are evaluated. […] For statistical processing of experimental data, statistical programs Origin 8.5 and IBM SPSS Statistics are used. The significance of differences between populations is evaluated by the Mann-Whitney U-test. […] Their presence, frequency and amplitude are characteristic indicators of brain epileptic activity.

[4] = test system: corazol rat epilepsy model (convulsions caused by corazol); assay: Corazol model of epilepsy: development of seizures; type: in vivo; conditions: rats
Protocol: Experiments were carried out on male Wistar rats with a body weight of 180-250 g.
Corazol at a dose of 80 mg/kg is administered subcutaneously in the cervical area of the back.
The intensity of the development of a convulsive seizure was studied on a 6-point scale: • 0—lack of convulsive activity; • 1—hyperkinesia; • 2—trembling, twitching, excessive grooming, stereotypical movements; • 3—clonic convulsions of the front legs with lifting on the hind legs; • 4—pronounced tonic-clonic convulsions, the fall of the animal to the side, the presence of a phase of tonic extensia; • 5—repeated tonic-clonic convulsions, loss of posture; • 6—complete tonic attack with apnea, death of the animal.
To study the effect of the claimed compound 1 on the development of convulsions caused by corazol, compound 1 is dissolved in physiological saline and administered as follows: • at doses of 25 mg/kg, 100 mg/kg intraperitoneally (ip) 30 minutes before the induction of convulsions with corazol; • at doses of 100 mg/kg, 200 mg/kg, 250 mg/kg intragastrically 1 hour before the induction of convulsions with corazol.
The development of convulsive disorder is assessed by the following indicators: • time before the onset of seizures (min); • duration of seizures (sec.); • intensity of seizures on a 6-point scale; • number of animals with repeated convulsions; • number of dead animals in the group.
For statistical processing of experimental data, statistical programs Origin 8.5 and IBM SPSS Statistics are used.
The significance of differences between populations is evaluated by the Mann-Whitney U-test.

[5] = Acute toxicity in mice with oral administration (compound 1); conditions: female, CD-1 (ICR), mouse, in vivo, 5000 mg/kg, printed 'in rats', study in CD-1 mice
Protocol: The study was performed on mice of the CD-1 (ICR) line (6-8 weeks, weight not less than 18 g, females). Two-fold intragastric (oral) administration of compound 1 in a volume of not more than 0.5 ml/30 g of body weight of the mouse using a gastric tube was used.
The introduction was carried out to animals deprived of food (for a period of not less than 8 hours) with free access to water. The volume of administration was calculated individually for each animal, based on the body mass recorded immediately before the introduction of the substance. Access to water and feed was renewed one hour after administration.
To prepare a dose of 5000 mg/kg for administration to mice, a portion of 1.5 g of compound 1 in a polystyrene boat on a Vibra scale (Shinko Denshi, Japan) was weighed, transferred to a volumetric flask of accuracy class A per 10 ml of volume, dissolved in distilled water and adjusted to the mark. Due to the insufficient solubility of compound 1, another 10 ml of distilled water is added to the resulting volume of the solution.
(§1) Animals were clinically examined individually after administration for 30 minutes, then at least once per hour for 4 hours, then daily once a day for 14 days. Body mass was recorded immediately before the administration of the preparation to calculate the volume of administration, then once every two days.

[6] = Acute toxicity in mice with intraperitoneal administration (compound 1); conditions: both sexes, CD-1 (ICR), mouse, in vivo, ip, printed 'in rats', study in CD-1 mice
Protocol: The study was performed on mice of the CD-1 (ICR) line (6-8 weeks, weight not less than 18 g) of both sexes. A single intraperitoneal injection of compound 1 was used at doses of 1000 mg/kg and 2000 mg/kg in a volume of 1 ml per 40 g of mouse body mass using an insulin syringe. The volume of administration was calculated individually for each animal, based on the body mass recorded immediately before the introduction of the substance.
To prepare a dose of 2000 mg/kg for administration to mice, a portion of 800 mg of compound 1 in a polystyrene boat on a Vibra scale (Shinko Denshi, Japan) was weighed, transferred to a volumetric flask of accuracy class A per 10 ml of volume, dissolved in physiological saline and adjusted to the mark. The solution was filtered with 0.22 μm syringe nozzles (Jet Biofil). […]
as §1

mice [7] = conditions: intravenous injection; cited from earlier work
rats [8] = conditions: intravenous injection; cited from earlier work
rats [9] = conditions: oral administration; cited from earlier work

For NC(=O)N1c2ccccc2C=Cc2ccccc21 [carbamazepine], the LD50 (mice [1]; mice, oral administration) is given as 529 mg/kg and the LD50 (mice [2]) is given as 114 mg/kg.

For Cc1nc(CS(=O)(=O)O)c(CO)c(CO)c1O [compound 1, (5-hydroxy-3,4-bis (hydroxymethyl)-6-methylpyridin-2-yl) methanesulfonic acid], the “antiepileptic effect compared with sodium valproate” value ([3]; compound 1 25-100 mg/kg against sodium valproate 600 mg/kg, ip, penicillin model) was 6-24 times, the “suppression of HAED (epileptic electrical activity of the brain)” value ([3]; compound 1 at 25, 50, 100 mg/kg ip, given 30 min after penicillin, 60 minutes after administration, rats) was “completely suppressing HAED; also recorded: completely suppresses the epileptic electrical activity of the brain” and the “amplitude and frequency of HAED” value ([3]; compound 1 at 25, 50, 100 mg/kg ip, rats, penicillin model) was “decrease in the amplitude and frequency of HAED”. For the same compound, the “prevention / reduction of development of a seizure” value ([4]; 250 mg/kg oral administration, corazol model) was “best results in reducing the development of a seizure; also recorded: complete prevention of seizures in some cases”, the “intensity and duration of seizures” value ([4]; 25 and 100 mg/kg intraperitoneally and 100 and 200 mg/kg orally, corazol model) was “decrease in the intensity and duration of seizures” and the “effect on development of a seizure relative to 250 mg/kg oral” value ([4]; 100 and 200 mg/kg oral, corazol model) was “slightly less pronounced”. The deaths ([4]; all dosages, corazol model) was “completely prevents deaths”, the “likelihood of recurrence of seizures” value ([4]; all dosages, corazol model) was “greatly reduces the likelihood of recurrence of seizures” and the “duration and intensity of seizures” value ([4]; corazol 80 mg/kg sc, oral and intravenous (so in the source) ways of administration, all doses) was “dose-dependent decrease in the duration and intensity of seizures”. For the same compound, the LD50 at 14 days [5] was > 5000 mg/kg and the LD50 at 14 days [6] was > 2000 mg/kg.

For CCC1(C)CC(=O)NC1=O (stereo not drawn) [ethosuximide], the LD50 (mice [1]; mice, oral administration) is given as 1530 mg/kg.

In the case of NCC1(CC(=O)O)CCCCC1 [gabapentinum], the LD50 (mice [7]) is given as 1000 to 2000 mg/kg, the LD50 (rats [8]) is given as > 300 mg/kg and the LD50 (mice [1]; mice, oral administration) is given as > 5000 mg/kg. For the same compound, the LD50 (rats [9]) was > 5000 mg/kg.

For Nc1nnc(-c2cccc(Cl)c2Cl)c(N)n1 [lamotrigine], the LD50 (mice [1]; mouse, in vivo, po) is given as 269 mg/kg.

For CC[C@@H](C(N)=O)N1CCCC1=O [levetiracetam], the LD50 (mice [1]; mice, oral administration) is listed as > 5000 mg/kg.

For CCC1(c2ccccc2)C(=O)NC(=O)NC1=O [phenobarbital], the LD50 (rats [9]) is given as 163 mg/kg.

For O=C1N=C([O-])NC1(c1ccccc1)c1ccccc1.[Na+] [sodium phenytoin], the LD50 (mice [1]; mice, oral administration) is listed as 165 mg/kg.

In the case of CCCC(CCC)C(=O)[O-].[Na+] [sodium valproate], the LD50 (mice [1]; mice, oral administration) is given as 977 mg/kg and the LD50 (mice [2]) is given as 470 mg/kg.

In the case of CC1(C)O[C@@H]2[C@@H](CO[C@@]3(COS(N)(=O)=O)OC(C)(C)O[C@@H]23)O1 [topiramate], the LD50 (rats [9]) is given as 3570 mg/kg.

For NS(=O)(=O)Cc1noc2ccccc12 [zonisamide], the LD50 (mice [1]; mice, oral administration) is given as 1829 mg/kg and the LD50 (mice [2]) is given as 699 mg/kg.
